± gives the standard deviation of the reports.
Assays:
[1] = not given; remark: listed apart in the source
[2] = not given; remark: listed apart in the source
[3] = not given; remark: listed apart in the source
[4] = not given; remark: listed apart in the source

glass transition temperature [3] [°C]	SMILES	other results
–	*CC(*)c1ccc(C(C)CC)cc1 (repeat unit) [Poly(p-sec-butyl styrene) ]	glass transition temperature: 85.4 ± 0.7 °C
–	*CC(*)c1ccccc1OCCCCCCCC (repeat unit) [Poly(o-n-octoxy styrene) ]	glass transition temperature: 12 ± 1.4 °C
–	*c1ccc2c(c1)C(CCCCCCCC)(CCCCCCCC)c1cc(-c3ccc(-c4ccc(-c5ccc(*)s5)c5nsnc45)s3)ccc1-2 (repeat unit)	glass transition temperature [1]: 126.00 °C
–	*C=C(*)c1ccccc1 (repeat unit) [Poly(phenylacetylene)]	glass transition temperature [2]: 51 °C
309.00	*Oc1c(F)c(F)c(Oc2c(F)c(F)c3c(c2F)C(=O)N(c2c(F)c(F)c(F)c(N4C(=O)c5c(F)c(*)c(F)c(F)c5C4=O)c2F)C3=O)c(F)c1F (repeat unit)	–
266.50	*C(=O)Oc1ccc2ccccc2c1-c1c(OC(=O)c2ccc3c(c2)C(=O)N(c2ccc(C(=O)Oc4ccc5ccccc5c4-c4c(OC(=O)c5ccc(N6C(=O)c7ccc(*)cc7C6=O)cc5)ccc5ccccc45)cc2)C3=O)ccc2ccccc12 (repeat unit)	–
370.00	*c1ccc2c(c1)C(=O)N(c1ccc(N3C(=O)c4ccc(C(*)(C(F)(F)F)C(F)(F)F)cc4C3=O)cc1F)C2=O (repeat unit)	–
–	*CC(*)C(=O)NC(C)CC (repeat unit) [Poly(N-sec-butylacrylamide)]	glass transition temperature [4]: 117 °C
248.00	*Oc1cccc(C(=O)c2ccc(Oc3cccc4c3C(=O)N(c3cccc(N5C(=O)c6cccc(*)c6C5=O)c3)C4=O)cc2)c1 (repeat unit)	–
259.00	*C(=O)c1ccc2c(c1)C(=O)N(c1cccc(C(=O)c3ccccc3N3C(=O)c4ccc(*)cc4C3=O)c1)C2=O (repeat unit)	–
–	*c1cc2c(s1)c1sc(-c3sc(-c4ccc(-c5cc(CCCCCC)c(*)s5)c5nsnc45)cc3CCCCCC)cc1n2CC(CC)CCCC (repeat unit)	glass transition temperature [1]: 90.00 °C
366.00	*c1ccc2c(c1)C(=O)N(c1ccc(N3C(=O)c4ccc(C(*)(C(F)(F)F)C(F)(F)F)cc4C3=O)cc1C(F)(F)F)C2=O (repeat unit)	–
266.00	*Oc1cccc(S(=O)(=O)c2ccc(Oc3cccc4c3C(=O)N(c3cccc(N5C(=O)c6cccc(*)c6C5=O)c3)C4=O)cc2)c1 (repeat unit)	–
–	*CC(*)(C)C(=O)OCCCCCCCC(C)C (repeat unit) [Poly(isodecyl methacrylate)]	glass transition temperature [4]: -41 °C
236.00	*Oc1cccc(C(C)(C)c2ccc(Oc3cccc4c3C(=O)N(c3cccc(N5C(=O)c6cccc(*)c6C5=O)c3)C4=O)cc2)c1 (repeat unit)	–
–	*c1ccc2c(c1)C(CCCCCCCC)(CCCCCCCC)c1cc(-c3ccc(-c4ccc(*)s4)s3)ccc1-2 (repeat unit)	glass transition temperature [1]: 102.00 °C
238.00	*Oc1cccc(Oc2ccc(Oc3cccc4c3C(=O)N(c3cccc(N5C(=O)c6cccc(*)c6C5=O)c3)C4=O)cc2)c1 (repeat unit)	–
–	*CCCCCCO* (repeat unit) [Polyoxyhexamethylene ]	glass transition temperature: -71.6 ± 3.5 °C
128.00	*Oc1ccc(Oc2ccc(Oc3cccc4c3C(=O)N(CCCCCCCCN3C(=O)c5cccc(*)c5C3=O)C4=O)cc2)cc1 (repeat unit)	–

glass transition temperature [3] [°C]	SMILES	other results
336.00	*c1ccc2c(c1)C(=O)N(c1ccc(-c3ccc(N4C(=O)c5ccc(C(*)(C(F)(F)F)C(F)(F)F)cc5C4=O)cc3Cl)c(Cl)c1)C2=O (repeat unit)	–
292.00	*C(=O)c1ccc2c(c1)C(=O)N(c1ccc(Cc3cccc(N4C(=O)c5ccc(*)cc5C4=O)c3)cc1)C2=O (repeat unit)	–
–	*CC(*)(C)C(=O)OCC(C)C (repeat unit) [Poly(isobutyl methacrylate) ]	glass transition temperature: 47.4 ± 0.7 °C
215.00	*Oc1cccc(Oc2ccc(Oc3ccc4c(c3)C(=O)N(c3ccc(Oc5ccc(N6C(=O)c7ccc(*)cc7C6=O)cc5)cc3)C4=O)cc2)c1 (repeat unit)	–
–	*c1ccc2c(c1)C(CCCCCCCC)(CCCCCCCC)c1cc(-c3ccc(-c4c(-c5ccccc5)c(-c5ccccc5)c(-c5ccc(*)s5)c5nc(-c6ccccc6)c(-c6ccccc6)nc45)s3)ccc1-2 (repeat unit)	glass transition temperature [1]: 192.00 °C
278.00	*c1ccc2c(c1)C(=O)N(c1ccc(-c3ccc(N4C(=O)c5ccc(C(*)(C(F)(F)F)C(F)(F)F)cc5C4=O)cc3-c3cccc(C(F)(F)F)c3)c(-c3cccc(C(F)(F)F)c3)c1)C2=O (repeat unit)	–
–	*c1ccc2c(c1)N(CC(CCCCCCCC)CCCCCCCCCC)C(=O)/C2=C1/C(=O)N(CC(CCCCCCCC)CCCCCCCCCC)c2cc(-c3ccc(-c4ccc(*)s4)s3)ccc21 (repeat unit)	glass transition temperature [1]: 65.00 °C
260.00	*c1ccc2c(c1)C(=O)N(c1cccc(S(=O)(=O)c3cccc(N4C(=O)c5ccc(*)cc5C4=O)c3)c1)C2=O (repeat unit)	–
221.00	*C(=O)c1ccc2c(c1)C(=O)N(c1cccc(Oc3cccc(N4C(=O)c5ccc(*)cc5C4=O)c3)c1)C2=O (repeat unit)	–
194.00	*Oc1cccc(S(=O)(=O)c2ccc(Oc3ccc4c(c3)C(=O)N(c3ccc(Oc5cccc(Oc6ccc(N7C(=O)c8ccc(*)cc8C7=O)cc6)c5)cc3)C4=O)cc2)c1 (repeat unit)	–
223.00	*Oc1cccc(C(C)(C)c2ccc(Oc3ccc4c(c3)C(=O)N(c3ccc(Oc5ccc(N6C(=O)c7ccc(*)cc7C6=O)cc5)cc3)C4=O)cc2)c1 (repeat unit)	–
300.00	*C(=O)c1ccc2c(c1)C(=O)N(c1c(CC)cc(Cc3cc(CC)c(N4C(=O)c5ccc(*)cc5C4=O)c(CC)c3Cl)c(Cl)c1CC)C2=O (repeat unit)	–
–	*CC(*)c1ccc(OC)cc1C (repeat unit) [Poly(4-methoxy-2-methyl styrene) ]	glass transition temperature: 87.4 ± 3.5 °C
259.00	*C(=O)c1ccc2c(c1)C(=O)N(c1cccc(Oc3ccccc3N3C(=O)c4ccc(*)cc4C3=O)c1)C2=O (repeat unit)	–
–	*CC(*)c1cccc(CO)c1 (repeat unit) [Poly(m-hydroxymethyl styrene) ]	glass transition temperature: 124.4 ± 0.7 °C
241.00	*Oc1cccc2c1C(=O)N(c1cccc(S(=O)(=O)c3cccc(N4C(=O)c5cccc(*)c5C4=O)c3)c1)C2=O (repeat unit)	–
274.00	*c1ccc(Cc2ccc(-n3c(=O)c4cc5c(=O)n(*)c(=O)c5cc4c3=O)c(C)c2)cc1C (repeat unit)	–
278.00	*Oc1c(F)c(F)c(Oc2c(F)c(F)c3c(c2F)C(=O)N(c2c(F)c(F)c(Sc4c(F)c(F)c(N5C(=O)c6c(F)c(*)c(F)c(F)c6C5=O)c(F)c4F)c(F)c2F)C3=O)c(F)c1F (repeat unit)	–

Source: the PolyMetriX glass transition set
